These results are taken from patent US20060111381A1, “Amidine compounds” (priority 2002, published 2006).

Series [1] has as its system ICR mice. The series is described as follows: Phenylquinone-induced writhing model in mice (writhes counted in following 5-10 minute period). Format: in vivo. Conditions: for No. of Writhings, Individual: individual mice; for % Inhibition: relative to vehicle group. The procedure:
(§1) Testing on compound KRS-6-48 was carried out under contract by MDS Services—Taiwan Ltd. KRS-6-48 was evaluated for possible analgesic activity in the phenylquinone-induced writhing model in mice (Siegmund et al, 1957). A serial 2-fold dosage variance was used in the test, from 128 mg/kg to 1 mg/kg (8 doses in total). Groups of 3 male or female ICR mice weighing 22±2 g were employed. Variant doses (1, 2, 4, 8, 16, 32, 64 and 128 mg/kg) of test substances were administered intraperitoneally (IP). A vehicle of 2% Tween 80 in 0.9% NaCl was used for the intraperitoneal injection. The control group received vehicle alone. […] A reduction in the number of writhes by 50 percent or more (≧50%) relative to the vehicle-treated group indicated possible analgesic activity.
Testing on compounds KRS-6-41, KRS-6-51, and KRS-6-71 was also carried out under contract by MDS Services—Taiwan Ltd. The study was designed to evaluate the effects of the compounds as analgesics in the phenylquinone-induced writhing assay described in detail in Example 10 (Siegmund et al, 1957).
(§2) In each case, a serial 2-fold dosage variance was used in the test, from 128 mg/kg to 1 mg/kg (8 doses in total). Groups of 3 male or female ICR mice weighing 22±2 g were employed. Variant doses (1, 2, 4, 8, 16, 32, 64 and 128 mg/kg) of test substances were administered intraperitoneally (IP). A vehicle of 2% Tween 80 in 0.9% NaCl was used for the intraperitoneal injection. The control group received vehicle alone. […] A reduction in the number of writhes by 50 percent or more (≧50%) relative to the vehicle-treated group indicated possible analgesic activity.
For orientation: In writhing tests, fewer writhes than in controls are read as antinociception.

Series [2] relates to ICR mice. The series is described as follows: Deaths and adverse signs observed in writhing-study mice. The series is classed as in vivo. Conditions: 128 mg/kg IP. The procedure: as §1, §2
Another series addresses T1, human δ-opiate receptor (Homo sapiens, UniProt P41143).
T1 construct: purchased MDS Pharma Services 260110
Nature of the series: In vitro opiate receptor radioligand binding assay (MDS 260110). Conditions: test compound 10 μM, read-out: Percentage Inhibition of Radioligand Binding. The procedure: (§3) To characterise the target specificity of the compounds, KRS-6-41, KRS-6-48 and KRS-6-51 were tested at a concentration of 10 μM for their ability to inhibit the binding of a radioligand to human δ-, κ-, or μ-opiate receptors in vitro using commercially available assays (MDS Pharma Services; assay catalogue numbers 260110, 260210 and 260410 respectively).

For another series, the target named is T2, human κ-opiate receptor (Homo sapiens, UniProt P41145).
T2 construct: purchased MDS Pharma Services 260210
T2 sequence (P41145 whole entry): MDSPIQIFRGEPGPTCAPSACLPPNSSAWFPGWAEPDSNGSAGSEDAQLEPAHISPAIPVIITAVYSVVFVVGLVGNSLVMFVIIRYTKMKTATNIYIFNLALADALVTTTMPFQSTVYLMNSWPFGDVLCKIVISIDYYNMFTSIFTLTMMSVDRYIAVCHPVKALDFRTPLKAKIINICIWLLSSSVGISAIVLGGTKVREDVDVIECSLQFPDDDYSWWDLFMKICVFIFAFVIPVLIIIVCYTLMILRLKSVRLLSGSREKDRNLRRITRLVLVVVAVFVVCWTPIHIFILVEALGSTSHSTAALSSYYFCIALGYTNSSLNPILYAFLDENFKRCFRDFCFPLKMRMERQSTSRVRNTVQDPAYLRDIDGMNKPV
The series is described as follows: In vitro opiate receptor radioligand binding assay (MDS 260210). Conditions: test compound 10 μM, read-out: Percentage Inhibition of Radioligand Binding. The procedure:
as §3

A further series addresses T3, human μ-opiate receptor (Homo sapiens, UniProt P35372).
T3 construct: purchased MDS Pharma Services 260410
The series is described as follows: In vitro opiate receptor radioligand binding assay (MDS 260410). Conditions: test compound 10 μM, read-out: Percentage Inhibition of Radioligand Binding. The procedure:
as §3

In series [3] the test system is ICR mice. Nature of the series: Straub tail behaviour (indicator of CNS activity) in writhing-study mice. Conditions: any doses (1 to 128 mg/kg IP).

Values joined by “and” are separate entries in the source; they are usually repeats but may differ in a detail not shown here. Identical values can stand only once. Counter-ions that a name gives are not always drawn.

T1 sequence (P41143 whole entry): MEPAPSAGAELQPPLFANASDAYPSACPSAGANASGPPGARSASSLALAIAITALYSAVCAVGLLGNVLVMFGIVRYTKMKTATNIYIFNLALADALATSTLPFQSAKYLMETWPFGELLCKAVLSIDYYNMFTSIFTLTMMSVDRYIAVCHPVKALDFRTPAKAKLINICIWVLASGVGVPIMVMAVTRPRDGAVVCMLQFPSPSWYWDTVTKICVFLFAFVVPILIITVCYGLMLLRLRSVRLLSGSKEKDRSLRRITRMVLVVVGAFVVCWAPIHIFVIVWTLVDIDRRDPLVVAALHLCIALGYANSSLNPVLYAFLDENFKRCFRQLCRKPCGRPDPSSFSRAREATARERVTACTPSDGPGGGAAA
T3 sequence (P35372 whole entry): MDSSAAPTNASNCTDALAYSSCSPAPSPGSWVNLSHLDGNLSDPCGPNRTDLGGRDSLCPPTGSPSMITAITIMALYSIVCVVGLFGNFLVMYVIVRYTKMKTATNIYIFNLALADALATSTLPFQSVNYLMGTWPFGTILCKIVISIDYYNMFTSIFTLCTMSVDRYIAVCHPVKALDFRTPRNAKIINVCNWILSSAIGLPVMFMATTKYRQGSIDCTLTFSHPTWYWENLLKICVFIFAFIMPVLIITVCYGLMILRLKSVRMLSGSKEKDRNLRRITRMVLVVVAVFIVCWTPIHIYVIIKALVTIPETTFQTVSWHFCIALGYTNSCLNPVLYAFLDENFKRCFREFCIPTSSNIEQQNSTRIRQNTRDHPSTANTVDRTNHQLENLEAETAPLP

As usually defined, the melting point is the temperature, or range, at which the solid turns liquid. In turn, `CCC(=Nc1ccccc1)NCCCN1CC[C@]23c4c5ccc(O)c4O[C@H]2[C@@H](O)C=CC3[C@H]1C5` (stereo partly drawn) (as salt: HCl) [KRS-6-48, (5α,6α)-7,8-didehydro-4,5-epoxy-17-((N-phenylpropionamidino)-propyl)morphinan, 3,6-diol] showed a melting point of 188 to 190 °C.

By % Inhibition is commonly meant the drop in the measured response relative to a control, in per cent. Low readings indicate a response near the control, high ones a response far below the control. What is called inhibition is how much of the control response was suppressed. For `CC(=Nc1ccccc1)NCCCN1CC[C@]23c4c5ccc(O)c4O[C@H]2[C@@H](O)C=CC3[C@H]1C5` (stereo partly drawn) [KRS-6-51, (5α,6α)-7,8-didehydro-4,5-epoxy-17-((N-phenylacetamidino)-propyl)morphinan, 3,6-diol], the “No. of Writhings, Average” value with ICR mice [1] (1 mg/kg IP) was found to be 12; in the series on ICR mice [1] (2 mg/kg IP), 11; in the series on ICR mice [1] (4 mg/kg IP) it was 10; in the series on ICR mice [1] (8 mg/kg IP) it was 8; in the series on ICR mice [1] (16 mg/kg IP), 8; in the series with ICR mice [1] (32 mg/kg IP) it was 5. The “No. of Writhings, Average” value with ICR mice [1] (64 mg/kg IP) is 0. Moreover, the “No. of Writhings, Individual” value in the series on ICR mice [1] (1 mg/kg IP) is 11 and 14 and 12; with ICR mice [1] (2 mg/kg IP), 18 and 9 and 7; with ICR mice [1] (4 mg/kg IP) it was 10 and 13 and 7; in the series on ICR mice [1] (8 mg/kg IP), 9 and 8 (2×); in the series with ICR mice [1] (16 mg/kg IP), 12 and 4 and 7; with ICR mice [1] (32 mg/kg IP), 3 and 5 and 7. For the same molecule, the “No. of Writhings, Individual” value in the series with ICR mice [1] (64 mg/kg IP) is 0; with ICR mice [1] (128 mg/kg IP) it was “died and 0 (2×)”. For the same molecule, the “% Inhibition” value in the series on ICR mice [1] (1 mg/kg IP) is on record as 20%; in the series on ICR mice [1] (2 mg/kg IP) it was 27%; in the series with ICR mice [1] (4 mg/kg IP), 33%; in the series with ICR mice [1] (8 mg/kg IP), 47%; in the series with ICR mice [1] (16 mg/kg IP) it was 47%; in the series on ICR mice [1] (32 mg/kg IP), 67%. The “% Inhibition” value with ICR mice [1] (64 mg/kg IP) was determined as 100%. In addition, the “analgesic activity in writhing model (in words)” value with ICR mice [1] (at doses of 64 and 32 mg/kg IP) is on record as “significant activity”. Further, the “test animals exhibiting tremors and edema” value in the series with ICR mice [2] was 2 of the 3. In addition, the “test animals died within 15 minutes” value in the series on ICR mice [2] (within 15 minutes) was 21 of the 3. In addition, the results for the inhibition at 10 µM on human δ-opiate receptor, at human κ-opiate receptor and at human μ-opiate receptor were 37%, 54% and 97%, respectively. Moreover, the Straub tail behaviour entry in the series on ICR mice [3] is on record as “None of the test animals exhibited Straub tail behaviour”.

`CCC(=Nc1ccccc1CC)NCCCN1CC[C@]23c4c5ccc(O)c4O[C@H]2[C@@H](O)C=CC3[C@H]1C5` (stereo partly drawn) [KRS-6-71, (5α,6α)-7,8-didehydro-4,5-epoxy-17-((N-(2-ethylphenyl)propionamidino)-propyl)morphinan, 3,6-diol] had a melting point of 58 to 59 °C. For the same molecule, in the series on ICR mice [1] (1 mg/kg IP), the “No. of Writhings, Average” value is given as 18; the “No. of Writhings, Individual” value was 24 and 13 and 18; the “% Inhibition” value came to 22%. Besides, in the series on ICR mice [1] (2 mg/kg IP), the “No. of Writhings, Average” value turned out to be 14; the “No. of Writhings, Individual” value was 2 and 12 and 18; the “% Inhibition” value is 39%. Moreover, in the series on ICR mice [1] (4 mg/kg IP), the “No. of Writhings, Average” value is recorded as 11; the “No. of Writhings, Individual” value was 16 (2×) and 2; the “% Inhibition” value was determined as 52%. Moreover, in the series on ICR mice [1] (8 mg/kg IP), the “No. of Writhings, Average” value is 11; the “No. of Writhings, Individual” value is 0 and 18 and 15; the “% Inhibition” value is 52%. In addition, in the series with ICR mice [1] (16 mg/kg IP), the “No. of Writhings, Average” value came out at 7; the “No. of Writhings, Individual” value was 13 and 0 and 8; the “% Inhibition” value is reported as 70%. Further, in the series with ICR mice [1] (32 mg/kg IP), the “No. of Writhings, Average” value is listed as 7; the “No. of Writhings, Individual” value is 6 and 0 and 15; the “% Inhibition” value is listed as 70%. Besides, in the series with ICR mice [1] (64 mg/kg IP), the “No. of Writhings, Average” value came to 1; the “No. of Writhings, Individual” value is 0 (2×) and 3; the “% Inhibition” value worked out at 96%. Further, in the series with ICR mice [1] (128 mg/kg IP), the “No. of Writhings, Average” value was found to be 0; the “No. of Writhings, Individual” value is on record as 0; the “% Inhibition” value turned out to be 100%. Moreover, the Straub tail behaviour entry in the series on ICR mice [3] is listed as “None of the test animals exhibited Straub tail behaviour”.
